Among the data in patent US12059420B2 (BRISTOL-MYERS SQUIBB COMPANY, priority 2018, dated 2024) are IC50 values, retold here.

Where a name gives a salt, the structure may show the parent alone.

The assay concerns the target T1, human IDO1 (Homo sapiens, UniProt P14902).
T1 construct: expressed in transfected cells
The experiment in a line: IDO inhibition assay in HEK293 cells stably expressing human IDO1 (kynurenine production, Ehrlich reagent, absorbance 490 nm). It is filed as cell-based. Particulars: 20 hours incubation with compound, 500 nM reference standard = 100% inhibition, read-out: IDO1 HEK Human IC50. A digest of the protocol: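 HEK293 clones stably expressing human IDO1 (10,000 cells/well, phenol red-free RPMI, 10% FBS) were treated with compound for 20 hours at 37° C. After 0.2% TCA and 30 min at 50° C., kynurenine was read with Ehrlich reagent at 490 nm. IC50 was normalised to DMSO (0%) and 500 nM reference standard (100%).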

T1 sequence (P14902 whole entry): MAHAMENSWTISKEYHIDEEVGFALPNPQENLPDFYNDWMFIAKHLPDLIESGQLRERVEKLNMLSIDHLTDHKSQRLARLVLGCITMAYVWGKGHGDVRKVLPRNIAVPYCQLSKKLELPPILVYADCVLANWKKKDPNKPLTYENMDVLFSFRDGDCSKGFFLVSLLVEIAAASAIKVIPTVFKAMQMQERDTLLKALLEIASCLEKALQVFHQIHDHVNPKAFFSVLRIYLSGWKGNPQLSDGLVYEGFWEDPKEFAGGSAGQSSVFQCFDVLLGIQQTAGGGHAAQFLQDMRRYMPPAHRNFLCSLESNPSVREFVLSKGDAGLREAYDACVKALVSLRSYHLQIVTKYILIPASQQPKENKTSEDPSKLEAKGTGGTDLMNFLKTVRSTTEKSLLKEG

Take `CCCN(CC1CC1)c1cc(NC(=O)Nc2ccc(Cl)cc2Cl)cc(-c2ccccc2-c2nnn[nH]2)n1` [Example 83, 1-(2-(2-(1H-tetrazol-5-yl)phenyl)-6-((cyclopropylmethyl)(propyl)amino)pyridin-4-yl)-3-(2,4-dichlorophenyl)urea, TFA]: the IC50 stood at 158 nM.

As to `CCCN(CC1CC1)c1cc(Nc2ncc(C(F)(F)F)cn2)cc(-c2ccccc2-c2nnn[nH]2)n1` [Example 84], the IC50 stood at 373 nM.

For `CCCN(Cc1ccc(F)cc1)c1cc(NC(=O)Cc2ccc(C)cc2)cc(-c2ccccc2-c2nnn[nH]2)n1` [Example 85, N-(2-(2-(1H-tetrazol-5-yl)phenyl)-6-((4-fluorobenzyl)(propyl)amino)pyridin-4-yl)-2-(p-tolyl)acetamide, TFA], the IC50 came out at 89.8 nM.

As for `CCCN(Cc1ccc(F)cc1)c1cc(NC(=O)Nc2ccc(Cl)cc2Cl)cc(-c2ccccc2-c2nnn[nH]2)n1` [Example 86, 1-(2-(2-(1H-tetrazol-5-yl)phenyl)-6-((4-fluorobenzyl)(propyl)amino)pyridin-4-yl)-3-(2,4-dichlorophenyl)urea], the IC50 is 8.6 nM.

`Cc1ccc(CC(=O)Nc2cc(-c3ccccc3-c3nnn[nH]3)nc(N(Cc3ccccc3)CC(C)C)c2)cc1` [Example 87, N-(2-(2-(1H-tetrazol-5-yl)phenyl)-6-(benzyl(isobutyl)amino)pyridin-4-yl)-2-(p-tolyl)acetamide, TFA]: the IC50 was 40.7 nM.

As for `CCCN(Cc1ccccc1)c1cc(NC(=O)Nc2ccccc2F)cc(-c2cc(C)ccc2-c2nnn[nH]2)n1` [Example 88, 1-(2-(benzyl(propyl)amino)-6-(5-methyl-2-(1H-tetrazol-5-yl)phenyl)pyridin-4-yl)-3-(2-fluorophenyl)urea, TFA], the 50% inhibitory concentration (IC50) was 109 nM.

With `Cc1ccc(CC(=O)Nc2cc(-c3cc(F)ccc3-c3nnn[nH]3)nc(N(Cc3ccccc3)CC(C)C)c2)cc1` [Example 89, N-(2-(benzyl(isobutyl)amino)-6-(5-fluoro-2-(1H-tetrazol-5-yl)phenyl)pyridin-4-yl)-2-(p-tolyl)acetamide, TFA], the concentration for half-maximal inhibition (IC50) turned out to be 150 nM.

Turning to `Cc1ccc(CC(=O)Nc2cc(-c3ccccc3-c3nnn[nH]3)nc(N(Cc3ccc(F)cc3)CC(C)C)c2)cc1` [Example 90, N-(2-(2-(1H-tetrazol-5-yl)phenyl)-6-((4-fluorobenzyl)(isobutyl)amino)pyridin-4-yl)-2-(p-tolyl)acetamide, TFA], the IC50 is 40.9 nM.

In the case of `Cc1ccc(CC(=O)Nc2cc(-c3ccccc3-c3nnn[nH]3)nc(N(Cc3ncccn3)CC(C)C)n2)cc1` [Example 92, N-(6-(2-(1H-tetrazol-5-yl)phenyl)-2-(isobutyl(pyrimidin-2-ylmethyl)amino)pyrimidin-4-yl)-2-(p-tolyl)acetamide], the IC50 amounted to 146 nM.

`Cc1ccc(NC(=O)Nc2cc(-c3ccccc3-c3nnn[nH]3)nc(N3CCc4ccccc4C3)n2)cc1` [Example 93, 1-(6-(2-(1H-tetrazol-5-yl)phenyl)-2-(3,4-dihydroisoquinolin-2(1H)-yl)pyrimidin-4-yl)-3-(p-tolyl)urea]: the IC50 was 3170 nM.

Take `Cc1ccc(CC(=O)Nc2cc(-c3ccccc3-c3nnn[nH]3)nc(N3CCc4ccccc4C3)n2)cc1` [Example 94, N-(6-(2-(1H-tetrazol-5-yl)phenyl)-2-(3,4-dihydroisoquinolin-2(1H)-yl)pyrimidin-4-yl)-2-(p-tolyl)acetamide]: the concentration for half-maximal inhibition (IC50) came to 260 nM.

With `CC(C)c1ccc(CC(=O)Nc2cc(-c3ccccc3-c3nnn[nH]3)nc(N3CCc4ccccc4C3)n2)cc1` [Example 95, N-(6-(2-(1H-tetrazol-5-yl)phenyl)-2-(3,4-dihydroisoquinolin-2(1H)-yl)pyrimidin-4-yl)-2-(4-isopropylphenyl)acetamide], the half-maximal inhibitory concentration (IC50) is 1390 nM.

For the molecule `Cc1ccc(CC(=O)Nc2cc(-c3ccccc3-c3nnn[nH]3)nc(N3CCN(Cc4ccccc4)C(=O)C3)n2)cc1` [Example 97, N-(6-(2-(1H-tetrazol-5-yl)phenyl)-2-(4-benzyl-3-oxopiperazin-1-yl)pyrimidin-4-yl)-2-(p-tolyl)acetamide], the IC50 came out at 1150 nM.

In the case of `Cc1ccc(NC(=O)Nc2cc(-c3ccccc3-c3nnn[nH]3)nc(N3C[C@@H]4C[C@H]3CN4Cc3ccccc3)n2)cc1` [Example 98, 1-(6-(2-(1H-tetrazol-5-yl)phenyl)-2-((1 S,4S)-5-benzyl-2,5-diazabicyclo [2.2.1]heptan-2-yl)pyrimidin-4-yl)-3-(p-tolyl)urea], the IC50 was found to be 846 nM.

For the molecule `CCN(CCC(F)(F)F)c1nc(NC(=O)Nc2ccc(C)cc2)cc(-c2ccccc2-c2nnn[nH]2)n1` [Example 99, 1-(6-(2-(1H-tetrazol-5-yl)phenyl)-2-(ethyl(3,3,3-trifluoropropyl)amino)pyrimidin-4-yl)-3-(p-tolyl)urea], the IC50 came out at 3660 nM.

For `CCN(CCC(F)(F)F)c1nc(NC(=O)Cc2ccc(C)cc2)cc(-c2ccccc2-c2nnn[nH]2)n1` [Example 100, N-(6-(2-(1H-tetrazol-5-yl)phenyl)-2-(ethyl(3,3,3-trifluoropropyl)amino)pyrimidin-4-yl)-2-(p-tolyl)acetamide], the half-maximal inhibitory concentration (IC50) was 127 nM.

Regarding `CCN(CCC(F)(F)F)c1cc(NC(=O)Cc2ccc(C)cc2)cc(-c2ccccc2-c2nnn[nH]2)n1` [Example 101, N-(2-(2-(1H-tetrazol-5-yl)phenyl)-6-(ethyl(3,3,3-trifluoropropyl)amino)pyridin-4-yl)-2-(p-tolyl)acetamide], the 50% inhibitory concentration (IC50) was found to be 514 nM.

Consider `CC(C)CN(Cc1ccccc1)c1nc(Nc2nc3ccccc3o2)cc(-c2ccccc2-c2nnn[nH]2)n1` [Example 102, 6-(2-(1H-tetrazol-5-yl)phenyl)-N4-(benzo [d]oxazol-2-yl)-N2-benzyl-N2-isobutylpyrimidine-2,4-diamine], for which the IC50 was found to be 8.6 nM.

For `CCCN(c1cc(NC(=O)Nc2ccc(C)cc2)cc(-c2ccccc2-c2nnn[nH]2)n1)C1CCOCC1` [Example 109, 1-(2-(2-(1H-tetrazol-5-yl)phenyl)-6-(propyl(tetrahydro-2H-pyran-4-yl)amino)pyridin-4-yl)-3-(p-tolyl)urea], the IC50 worked out at 4120 nM.

Consider `COCCN(c1cc(NC(=O)Nc2ccc(F)cc2)cc(-c2ccccc2-c2nnn[nH]2)n1)C1CCC(F)(F)CC1` [Example 114, 1-(2-(2-(1H-tetrazol-5-yl)phenyl)-6-((4,4-difluorocyclohexyl)(2-methoxyethyl)amino)pyridin-4-yl)-3-(4-fluorophenyl)urea], for which the IC50 was 6000 nM.

With `CCCN(c1cc(NC(=O)Nc2ccc(C)cc2)cc(-c2ccccc2-c2nnn[nH]2)n1)C1CCC(C)(C)CC1` [Example 119, 1-(2-(2-(1H-tetrazol-5-yl)phenyl)-6-((4,4-dimethylcyclohexyl) (propyl)amino)pyridin-4-yl)-3-(p-tolyl)urea], the 50% inhibitory concentration (IC50) came to 2010 nM.

Turning to `Cc1ccc(CC(=O)Nc2cc(-c3ccccc3-c3nnn[nH]3)nc(N3CC(C)OC(C)C3)c2)cc1` (centres unmarked) [Example 125, N-(2-(2-(1H-tetrazol-5-yl)phenyl)-6-(2,6-dimethylmorpholino)pyridin-4-yl)-2-(p-tolyl)acetamide], the IC50 is 1110 nM.

`Cc1ccc(CC(=O)Nc2cc(-c3ccccc3-c3nnn[nH]3)nc(N3CCCC(C)C3)c2)cc1` (centres unmarked) [Example 126, N-(2-(2-(1H-tetrazol-5-yl)phenyl)-6-(3-methylpiperidin-1-yl)pyridin-4-yl)-2-(p-tolyl)acetamide]: the IC50 worked out at 2000 nM.

For `Cc1ccc(CC(=O)Nc2cc(-c3ccccc3-c3nnn[nH]3)nc(N3CCCCCC3)c2)cc1` [Example 127, N-(2-(2-(1H-tetrazol-5-yl)phenyl)-6-(azepan-1-yl)pyridin-4-yl)-2-(p-tolyl)acetamide], the IC50 was 1050 nM.

Take `Cc1ccc(CC(=O)Nc2cc(-c3ccccc3-c3nnn[nH]3)nc(N3CCCC3C)c2)cc1` (centres unmarked) [Example 128, N-(2-(2-(1H-tetrazol-5-yl)phenyl)-6-(2-methylpyrrolidin-1-yl)pyridin-4-yl)-2-(p-tolyl)acetamide]: the IC50 worked out at 1800 nM.

Turning to `COc1ccccc1N1CCN(c2cc(NC(=O)Cc3ccc(C)cc3)cc(-c3ccccc3-c3nnn[nH]3)n2)CC1` [Example 129, N-(2-(2-(1H-tetrazol-5-yl)phenyl)-6-(4-(2-methoxyphenyl)piperazin-1-yl)pyridin-4-yl)-2-(p-tolyl)acetamide], the half-maximal inhibitory concentration (IC50) was found to be 1250 nM.

For the molecule `Cc1ccc(CC(=O)Nc2cc(-c3ccccc3-c3nnn[nH]3)nc(N3CCCC3)c2)cc1` [Example 131, N-(2-(2-(1H-tetrazol-5-yl)phenyl)-6-(pyrrolidin-1-yl)pyridin-4-yl)-2-(p-tolyl)acetamide], the half-inhibitory concentration (IC50) was 1600 nM.

Take `Cc1ccc(CC(=O)Nc2cc(-c3ccccc3-c3nnn[nH]3)nc(N3CCc4ccccc4C3)c2)cc1` [Example 132, N-(2-(2-(1H-tetrazol-5-yl)phenyl)-6-(3,4-dihydroisoquinolin-2(1H)-yl)pyridin-4-yl)-2-(p-tolyl)acetamide]: the concentration for half-maximal inhibition (IC50) is 520 nM.

For `Cc1ccc(CC(=O)Nc2cc(-c3ccccc3-c3nnn[nH]3)nc(N3CCCC(C)(C)C3)c2)cc1` [Example 135, N-(2-(2-(1H-tetrazol-5-yl)phenyl)-6-(3,3-dimethylpiperidin-1-yl)pyridin-4-yl)-2-(p-tolyl)acetamide], the concentration for half-maximal inhibition (IC50) amounted to 1240 nM.

For `Cc1cncc(Nc2cc(-c3ccccc3-c3nnn[nH]3)nc(N(Cc3ccccc3)CC(C)C)c2)n1` [Example 136, 6-(2-(1H-tetrazol-5-yl)phenyl)-N2-benzyl-N2-isobutyl-N4-(6-methylpyrazin-2-yl)pyridine-2,4-diamine], the concentration for half-maximal inhibition (IC50) is 78 nM.

As to `CC(C)CN(Cc1ccccc1)c1cc(Nc2cccc(CO)n2)cc(-c2ccccc2-c2nnn[nH]2)n1` [Example 137, (6-((2-(2-(1H-tetrazol-5-yl)phenyl)-6-(benzyl(isobutyl)amino)pyridin-4-yl)amino)pyridin-2-yl)methanol], the IC50 was determined as 48.7 nM.

With `CC(C)CN(Cc1ccccc1)c1cc(Nc2ccc3c(c2)OCO3)cc(-c2ccccc2-c2nnn[nH]2)n1` [Example 138, 6-(2-(1H-tetrazol-5-yl)phenyl)-N4-(benzo[d][1,3]dioxol-5-yl)-N2-benzyl-N2-isobutylpyridine-2,4-diamine], the IC50 amounted to 12 nM.
